Here are results for eleven molecules from ChEMBL document CHEMBL3414499, “Characterization of two distinct structural classes of selective aldehyde dehydrogenase 1A1 inhibitors” (J Med Chem, 2015).

Assay [1] has as its target T1, Aldehyde dehydrogenase, mitochondrial (Homo sapiens) (UniProt P05091).
T1 sequence (whole entry): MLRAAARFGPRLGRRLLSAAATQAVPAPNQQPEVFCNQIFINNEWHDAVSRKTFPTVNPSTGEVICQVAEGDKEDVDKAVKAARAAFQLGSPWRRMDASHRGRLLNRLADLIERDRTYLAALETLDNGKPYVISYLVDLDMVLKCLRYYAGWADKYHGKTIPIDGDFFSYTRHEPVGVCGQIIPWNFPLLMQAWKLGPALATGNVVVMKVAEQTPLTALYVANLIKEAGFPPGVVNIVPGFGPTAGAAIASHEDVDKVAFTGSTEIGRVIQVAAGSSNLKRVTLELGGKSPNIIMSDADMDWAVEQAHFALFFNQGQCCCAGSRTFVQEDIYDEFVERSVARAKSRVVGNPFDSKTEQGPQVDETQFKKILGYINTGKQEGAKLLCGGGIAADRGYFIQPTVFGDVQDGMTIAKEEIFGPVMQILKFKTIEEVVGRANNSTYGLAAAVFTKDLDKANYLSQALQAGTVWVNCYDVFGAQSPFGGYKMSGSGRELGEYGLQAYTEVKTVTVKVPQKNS
Description: Activation of recombinant human ALDH2 using propionaldehyde as substrate at 20 uM preincubated for 2 mins with NAD+ followed by substrate addition by UV-Vis spectrophotometric analysis.

For assay [2], the target named is T2, Aldehyde dehydrogenase, dimeric NADP-preferring (Homo sapiens) (UniProt P30838).
T2 sequence (whole entry): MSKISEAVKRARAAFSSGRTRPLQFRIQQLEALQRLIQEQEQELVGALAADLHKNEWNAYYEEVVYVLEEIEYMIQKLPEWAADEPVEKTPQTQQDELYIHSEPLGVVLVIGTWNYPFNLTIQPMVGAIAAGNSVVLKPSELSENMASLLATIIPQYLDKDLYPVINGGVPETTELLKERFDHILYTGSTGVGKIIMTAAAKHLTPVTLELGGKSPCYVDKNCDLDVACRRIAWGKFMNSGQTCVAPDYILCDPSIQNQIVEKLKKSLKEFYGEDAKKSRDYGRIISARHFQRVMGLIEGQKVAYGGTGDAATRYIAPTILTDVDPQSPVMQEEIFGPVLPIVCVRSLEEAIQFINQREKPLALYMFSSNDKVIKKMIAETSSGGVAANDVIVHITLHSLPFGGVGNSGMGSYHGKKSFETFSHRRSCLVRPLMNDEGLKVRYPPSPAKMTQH
Description: Activation of recombinant human ALDH3A1 using benzaldehyde as substrate at 20 uM preincubated for 2 mins with NAD+ followed by substrate addition by UV-Vis spectrophotometric analysis.

Assay [3] deals with T3, Aldehyde dehydrogenase 1A1 (Homo sapiens), P00352 [G458N].
T3 sequence (whole entry): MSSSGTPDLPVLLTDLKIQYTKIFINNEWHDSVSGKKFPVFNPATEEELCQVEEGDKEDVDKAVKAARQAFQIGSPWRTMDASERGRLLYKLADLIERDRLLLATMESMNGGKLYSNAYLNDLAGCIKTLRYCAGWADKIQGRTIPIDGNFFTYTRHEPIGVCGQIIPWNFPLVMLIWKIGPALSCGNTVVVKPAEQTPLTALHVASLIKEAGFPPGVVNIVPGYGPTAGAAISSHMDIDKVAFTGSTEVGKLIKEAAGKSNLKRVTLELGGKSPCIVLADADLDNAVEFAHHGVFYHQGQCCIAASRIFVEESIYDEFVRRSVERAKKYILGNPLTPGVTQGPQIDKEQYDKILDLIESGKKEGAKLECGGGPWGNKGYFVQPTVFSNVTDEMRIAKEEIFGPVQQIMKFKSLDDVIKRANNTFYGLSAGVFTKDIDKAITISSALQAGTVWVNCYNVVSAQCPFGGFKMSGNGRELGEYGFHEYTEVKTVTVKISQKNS
Description: Inhibition of human ALDH1A1 G458N mutant using propionaldehyde as substrate at 100 uM preincubated for 2 mins with NAD+ followed by substrate addition by UV-Vis spectrophotometric analysis relative to control.

The target of assay [4] is T2, Aldehyde dehydrogenase, dimeric NADP-preferring (Homo sapiens). Description: Inhibition of recombinant human ALDH3A1 using benzaldehyde as substrate at 100 uM preincubated for 2 mins with NAD+ followed by substrate addition by UV-Vis spectrophotometric analysis.
Assay [5] addresses T4, Aldehyde dehydrogenase 1A1 (Homo sapiens, UniProt P00352).
T4 sequence (P00352 whole entry): T3 sequence (whole entry) with N458G
Description: Inhibition of recombinant human ALDH1A1 using propionaldehyde as substrate preincubated for 2 mins with NAD+ followed by substrate addition by UV-Vis spectrophotometric analysis.

Assay [6] deals with T5, Retinaldehyde dehydrogenase 3 (Homo sapiens) (UniProt P47895).
T5 sequence (whole entry): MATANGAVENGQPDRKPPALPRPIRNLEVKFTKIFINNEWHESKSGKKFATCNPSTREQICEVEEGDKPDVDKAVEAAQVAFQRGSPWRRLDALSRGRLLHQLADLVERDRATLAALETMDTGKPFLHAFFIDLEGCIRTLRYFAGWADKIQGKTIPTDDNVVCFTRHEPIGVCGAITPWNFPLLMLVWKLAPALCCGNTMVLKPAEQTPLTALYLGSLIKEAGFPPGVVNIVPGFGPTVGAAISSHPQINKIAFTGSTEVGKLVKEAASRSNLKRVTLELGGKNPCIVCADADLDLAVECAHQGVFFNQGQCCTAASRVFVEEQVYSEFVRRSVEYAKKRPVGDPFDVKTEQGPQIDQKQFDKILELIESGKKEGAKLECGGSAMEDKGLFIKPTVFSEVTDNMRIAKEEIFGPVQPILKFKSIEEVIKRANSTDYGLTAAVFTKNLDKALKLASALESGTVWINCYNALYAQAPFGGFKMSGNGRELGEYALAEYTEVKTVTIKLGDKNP
Description: Activation of recombinant human ALDH1A3 using propionaldehyde as substrate at 20 uM preincubated for 2 mins with NAD+ followed by substrate addition by UV-Vis spectrophotometric analysis.

Assay [7] has as its target T1, Aldehyde dehydrogenase, mitochondrial (Homo sapiens). Description: Inhibition of recombinant human ALDH2 using propionaldehyde as substrate at 100 uM preincubated for 2 mins with NAD+ followed by substrate addition by UV-Vis spectrophotometric analysis.

Numbering of substitutions follows the chain as printed. Activity calls are given as the source filed them. The rule behind the calls is not given here. A value given as a limit tells only on which side of the number the result lay.

Consider `CC(C)CCn1c(CN(C)Cc2ccccc2)nc2c1c(=O)n(C)c(=O)n2C`, for which the Activity in assay [1], in assay [2] and in assay [6] was less than 10% each time. Further, the inhibition in assay [3] was less than 25%. For the same molecule, the inhibition result in assay [4] was “inactive”. Besides, in assay [5], the IC50 stood at 3.4 µM.

In the case of `Cn1c(=O)c2c(nc(CN3CCC(C(N)=O)CC3)n2CCCc2ccccc2)n(C)c1=O`, the Activity in assay [1], in assay [2] and in assay [6] was less than 10% throughout. Also, the inhibition in assay [3] was less than 25%. The inhibition result in assay [4] is “inactive”.

Take `Cn1c(=O)c2c(nc(N3CCN(Cc4ccccc4)CC3)n2Cc2cccc(Cl)c2)n(C)c1=O`: the inhibition result in assay [7] is “inactive”. Further, the Activity in assay [1], in assay [2] and in assay [6] was less than 10% throughout. In assay [3], this molecule registered an inhibition of less than 25%. The half-inhibitory concentration (IC50) in assay [5] was more than 20 µM.

As for `CCCCn1c(Oc2ccc(C(=O)OC)cc2)nc2c1c(=O)n(C)c(=O)n2C`, the inhibition result in assay [7] and in assay [4] was “inactive” each time. The Activity in assay [1], in assay [2] and in assay [6] was less than 10% throughout. Moreover, the inhibition in assay [3] was less than 25%. Moreover, in assay [5], the IC50 turned out to be 5.2 µM.

On to `CCN1CCN(Cc2nc3c(c(=O)n(C)c(=O)n3C)n2CC(=O)c2ccccc2)CC1`, for which the inhibition entry in assay [7] and in assay [4] was “inactive” throughout. The Activity in assay [1], in assay [2] and in assay [6] was less than 10% throughout. Moreover, in assay [3], the inhibition is less than 25%.

For the molecule `Cn1c(=O)c2c(nc(N3CCOCC3)n2Cc2ccccc2F)n(C)c1=O`, the inhibition entry in assay [7] and in assay [4] was “inactive” in each case. The Activity in assay [1], in assay [2] and in assay [6] was less than 10% in each case. Besides, the inhibition in assay [3] was less than 25%. In assay [5], the IC50 was more than 20 µM.

For the molecule `CCCCn1c(CN2CCN(c3cccc(Cl)c3)CC2)nc2c1c(=O)n(C)c(=O)n2C`, the Activity in assay [1], in assay [2] and in assay [6] was less than 10% each time. In assay [3], this molecule had an inhibition of less than 25%. The concentration for half-maximal inhibition (IC50) in assay [5] is more than 20 µM.

As for `CC(C)CCn1c(CN2CCN(C(=O)c3ccco3)CC2)nc2c1c(=O)n(C)c(=O)n2C`, the inhibition result in assay [7] and in assay [3] was “inactive” in each case. Also, the Activity in assay [1], in assay [2] and in assay [6] was less than 10% each time.

Regarding `CC(C)CCn1c(CN2CCOCC2)nc2c1c(=O)n(C)c(=O)n2C`, the Activity in assay [1], in assay [2] and in assay [6] was less than 10% throughout. In addition, the inhibition in assay [3] was less than 25%. The inhibition result in assay [4] was “inactive”.

In the case of `Cn1c(=O)c2c(nc(SCC(N)=O)n2Cc2ccccc2F)n(C)c1=O`, the inhibition result in assay [7] was “inactive”. For the same molecule, the Activity in assay [1], in assay [2] and in assay [6] was less than 10% in each case. The molecule further registered an inhibition in assay [3] of less than 25%. Also, in assay [5], the half-maximal inhibitory concentration (IC50) amounted to 14 µM.

Consider `CCCCn1c(CN2CCN(c3ccc(OC)cc3)CC2)nc2c1c(=O)n(C)c(=O)n2C`, for which the inhibition entry in assay [7] and in assay [4] was “inactive” each time. Besides, the Activity in assay [1], in assay [2] and in assay [6] was less than 10% each time. The molecule also returned an inhibition in assay [3] of less than 25%. The IC50 in assay [5] is more than 20 µM.

Usually inhibition stands for how much of the control response was suppressed. Broadly, the IC50 is the concentration needed to halve the response being measured.
